# Measurements as given in patent EP0271271B1, “Pharmaceutical preparations” (BEECHAM GROUP PLC, priority 1986, dated 1988).
# System: conscious male spontaneously hypertensive rats (SHR)
# Experiment: Systolic blood pressure by inflatable tail cuff in conscious spontaneously hypertensive rats
# Format: in vivo
# Method: Potentiation of the anti-hypertensive response to Compounds of formula (I) has been observed in conscious male spontaneously hypertensive rats (SHR) when the compounds were combined with the angiotensin I converting enzyme inhibitor enalapril. For the purpose of the experiment 36 rats were allotted at random to 4 groups, each of 9 rats. Systolic blood pressure (SBP) was measured non-invasively using an inflatable tail cuff technique as described in the aforementioned European Patent references. The protocol of the experiment was as follows: [table] […] The results were as shown in Table I. The protocol of the experiment for pinacidil was as follows: [table] […]
compound,measurement,setting,value
"CC1(C)Oc2ccc(C#N)cc2[C@@H](N2CCCC2=O)[C@@H]1O (relative stereo) [Compound 1, 6-cyano-3,4-dihydro-2,2-dimethyl-trans-4-(2-oxo-1-pyrrolidinyl)-2H-benzo[b]pyran-3-ol]",% change (± sem) of SBP,"Group 3: vehicle at 0 h, Compound 1 0.3 mg/kg po at 0.75 h, time 0.75 h (time of compound dosing), initial SBP 262±3 mmHg",-2±2%
same,% change (± sem) of SBP,"Group 3: vehicle at 0 h, Compound 1 0.3 mg/kg po at 0.75 h, time 1.75 h, initial SBP 262±3 mmHg",-43±2%
same,% change (± sem) of SBP,"Group 3: vehicle at 0 h, Compound 1 0.3 mg/kg po at 0.75 h, time 2.75 h, initial SBP 262±3 mmHg",-21±2%
same,% change (± sem) of SBP,"Group 3: vehicle at 0 h, Compound 1 0.3 mg/kg po at 0.75 h, time 4.75 h, initial SBP 262±3 mmHg",-15±3%
"CC1(C)Oc2ccncc2[C@@H](N2CCCC2=O)[C@@H]1O (relative stereo) [Compound 2, trans-3,4-dihydro-2,2-dimethyl-4-(2-oxopyrrolidin-1-yl)-2H-pyrano[3,2-c]pyridin-3-ol]",SBP change (quantity not headed in table; as % change of Table I),"Compound 2 0.6 mg/kg po alone, time 0.75, time-0 value 244±6",1±2
same,SBP change (quantity not headed in table; as % change of Table I),"Compound 2 0.6 mg/kg po alone, time 1.75, time-0 value 244±6",-20±2
same,SBP change (quantity not headed in table; as % change of Table I),"Compound 2 0.6 mg/kg po alone, time 2.75, time-0 value 244±6",-12±3
same,SBP change (quantity not headed in table; as % change of Table I),"Compound 2 0.6 mg/kg po alone, time 4.75, time-0 value 244±6",-11±2
"CN1CCCN(C2c3cc(C#N)ccc3OC(C)(C)C2O)C1=O (stereo not drawn) [Compound 3, 6-cyano-3,4-dihydro-2,2-dimethyl-trans-4-(N-3-methyltetrahydro-2-pyrimidone)-2H-benzo[b]pyran-3-ol]",SBP change (quantity not headed in table; as % change of Table I),"Compound 3 2.0 mg/kg po alone, time 0.75, time-0 value 253±6",0±3
same,SBP change (quantity not headed in table; as % change of Table I),"Compound 3 2.0 mg/kg po alone, time 1.75, time-0 value 253±6",-20±3
same,SBP change (quantity not headed in table; as % change of Table I),"Compound 3 2.0 mg/kg po alone, time 2.75, time-0 value 253±6",-22±3
same,SBP change (quantity not headed in table; as % change of Table I),"Compound 3 2.0 mg/kg po alone, time 4.75, time-0 value 253±6",-21±3
"CC(=O)NC1c2cc(C#N)ccc2OC(C)(C)C1O (stereo not drawn) [Compound 4, trans-4-N-acetylamino-6-cyano-3,4-dihydro-2,2-dimethyl-2H-benzo[b]pyran-3-ol]",SBP change (quantity not headed in table; as % change of Table I),"Compound 4 0.15 mg/kg po alone, time 0.75, time-0 value 281±5",0±2
same,SBP change (quantity not headed in table; as % change of Table I),"Compound 4 0.15 mg/kg po alone, time 1.75, time-0 value 281±5",-26±4
same,SBP change (quantity not headed in table; as % change of Table I),"Compound 4 0.15 mg/kg po alone, time 2.75, time-0 value 281±5",-23±4
same,SBP change (quantity not headed in table; as % change of Table I),"Compound 4 0.15 mg/kg po alone, time 4.75, time-0 value 281±5",-13±2
CCOC(=O)[C@H](CCc1ccccc1)N[C@@H](C)C(=O)N1CCC[C@H]1C(=O)O [Enalapril],SBP change (quantity not headed in table; as % change of Table I),"Compound 2 experiment: Compound (A) 3 mg/kg po alone, time 0.75, time-0 value 247±3",-9±1
same,SBP change (quantity not headed in table; as % change of Table I),"Compound 2 experiment: Compound (A) 3 mg/kg po alone, time 1.75, time-0 value 247±3",-22±2
same,SBP change (quantity not headed in table; as % change of Table I),"Compound 2 experiment: Compound (A) 3 mg/kg po alone, time 2.75, time-0 value 247±3",-14±3
same,SBP change (quantity not headed in table; as % change of Table I),"Compound 2 experiment: Compound (A) 3 mg/kg po alone, time 4.75, time-0 value 247±3",-16±2
same,SBP change (quantity not headed in table; as % change of Table I),"Compound 3 experiment: Compound (A) 3 mg/kg po alone, time 0.75, time-0 value 254±4",-8±2
same,SBP change (quantity not headed in table; as % change of Table I),"Compound 3 experiment: Compound (A) 3 mg/kg po alone, time 1.75, time-0 value 254±4",-10±3
same,SBP change (quantity not headed in table; as % change of Table I),"Compound 3 experiment: Compound (A) 3 mg/kg po alone, time 2.75, time-0 value 254±4",-12±4
same,SBP change (quantity not headed in table; as % change of Table I),"Compound 3 experiment: Compound (A) 3 mg/kg po alone, time 4.75, time-0 value 254±4",-21±3
same,SBP change (quantity not headed in table; as % change of Table I),"Compound 4 experiment: Compound (A) 3 mg/kg po alone, time 0.75, time-0 value 280±5",-4±2
same,SBP change (quantity not headed in table; as % change of Table I),"Compound 4 experiment: Compound (A) 3 mg/kg po alone, time 1.75, time-0 value 280±5",-9±2
same,SBP change (quantity not headed in table; as % change of Table I),"Compound 4 experiment: Compound (A) 3 mg/kg po alone, time 2.75, time-0 value 280±5",-12±3
same,SBP change (quantity not headed in table; as % change of Table I),"Compound 4 experiment: Compound (A) 3 mg/kg po alone, time 4.75, time-0 value 280±5",-14±2
same,% change (± sem) of SBP,"Group 2: enalapril 3 mg/kg po at 0 h, vehicle at 0.75 h, time 0.75 h, initial SBP 257±3 mmHg",-8±2%
same,% change (± sem) of SBP,"Group 2: enalapril 3 mg/kg po at 0 h, vehicle at 0.75 h, time 1.75 h, initial SBP 257±3 mmHg",-11±4%
same,% change (± sem) of SBP,"Group 2: enalapril 3 mg/kg po at 0 h, vehicle at 0.75 h, time 2.75 h, initial SBP 257±3 mmHg",-15±2%
same,% change (± sem) of SBP,"Group 2: enalapril 3 mg/kg po at 0 h, vehicle at 0.75 h, time 4.75 h, initial SBP 257±3 mmHg, n=7",-17±2 (n=7) %
same,% change (± s.e.m.) of SBP,"Pinacidil experiment, Group 2: enalapril 3 mg/kg po at 0 h, vehicle at 0.75 h, time 0.75 h, initial SBP 274±6 mmHg",-4±1%
same,% change (± s.e.m.) of SBP,"Pinacidil experiment, Group 2: enalapril 3 mg/kg po at 0 h, vehicle at 0.75 h, time 1.75 h, initial SBP 274±6 mmHg",-14±3%
same,% change (± s.e.m.) of SBP,"Pinacidil experiment, Group 2: enalapril 3 mg/kg po at 0 h, vehicle at 0.75 h, time 2.75 h, initial SBP 274±6 mmHg",-16±3%
same,% change (± s.e.m.) of SBP,"Pinacidil experiment, Group 2: enalapril 3 mg/kg po at 0 h, vehicle at 0.75 h, time 4.75 h, initial SBP 274±6 mmHg, n=8",-17±3(n=8) %
"CC(N/C(=N\C#N)Nc1ccncc1)C(C)(C)C (stereo not shown) [Pinacidil, Nʺ-Cyano-N-4-pyridyl-Nʹ-1,2,2-trimethylpropylguanidine]",% change (± s.e.m.) of SBP,"Group 3: vehicle at 0 h, pinacidil 1 mg/kg po at 0.75 h, time 0.75 h (time of pinacidil dosing), initial SBP 269±4 mmHg",+4±1%
same,% change (± s.e.m.) of SBP,"Group 3: vehicle at 0 h, pinacidil 1 mg/kg po at 0.75 h, time 1.75 h, initial SBP 269±4 mmHg, n=8",-33±5(n=8) %
same,% change (± s.e.m.) of SBP,"Group 3: vehicle at 0 h, pinacidil 1 mg/kg po at 0.75 h, time 2.75 h, initial SBP 269±4 mmHg",-19±3%
same,% change (± s.e.m.) of SBP,"Group 3: vehicle at 0 h, pinacidil 1 mg/kg po at 0.75 h, time 4.75 h, initial SBP 269±4 mmHg",-9±3%
